# Reference: PubChem BioAssay AID1259407 (Chemical Carcinogenesis Research Information System (CCRIS), 2018)
# Activity calls are given as the source filed them. The rule behind the calls is not given here.
# System: CCRIS mutagenicity, Ames/micronucleus/aberration tests
# Test: CCRIS mutagenicity studies
# [1] = Test System: AMES SALMONELLA TYPHIMURIUM, Strain/Indicator: TA98, Metabolic Activation: NONE, Method: PREINCUBATION
# [2] = Test System: AMES SALMONELLA TYPHIMURIUM, Strain/Indicator: TA100, Metabolic Activation: NONE, Method: PREINCUBATION
smiles,measurement,setting,value
COc1cccc(/C=C/c2ccc([N+](=O)[O-])cc2)c1,mutagenic call,"Test System: AMES SALMONELLA TYPHIMURIUM, Strain/Indicator: TA98(NR), Metabolic Activation: NONE, Method: STANDARD PLATE",active; positive
same,mutagenic call,"Test System: AMES SALMONELLA TYPHIMURIUM, Strain/Indicator: TA98(NR), Metabolic Activation: S-9, Method: STANDARD PLATE",active; positive
same,mutagenic call,"Test System: AMES SALMONELLA TYPHIMURIUM, Strain/Indicator: TA98, Metabolic Activation: NONE, Method: STANDARD PLATE",active; positive
same,mutagenic call,"Test System: AMES SALMONELLA TYPHIMURIUM, Strain/Indicator: TA98, Metabolic Activation: S-9, Method: STANDARD PLATE",active; positive
same,mutagenic call,"Test System: AMES SALMONELLA TYPHIMURIUM, Strain/Indicator: TA100 (NR), Metabolic Activation: NONE, Method: STANDARD PLATE",active; positive
same,mutagenic call,"Test System: AMES SALMONELLA TYPHIMURIUM, Strain/Indicator: TA100 (NR), Metabolic Activation: S-9, Method: STANDARD PLATE",active; positive
same,mutagenic call,"Test System: AMES SALMONELLA TYPHIMURIUM, Strain/Indicator: TA100, Metabolic Activation: NONE, Method: STANDARD PLATE",active; positive
same,mutagenic call,"Test System: AMES SALMONELLA TYPHIMURIUM, Strain/Indicator: TA100, Metabolic Activation: S-9, Method: STANDARD PLATE",active; positive
Nc1ccc([N+](=O)[O-])cc1Cl,mutagenic call,"End Point: IN VITRO CHROMOSOMAL ABERRATIONS, Test System: CHL CELLS, Metabolic Activation: RAT, LIVER, S-9, SODIUM PHENOBARBITAL AND 5,6-BENZOFLAVONE",active; positive (structural changes)
same,mutagenic call,"End Point: IN VITRO MICRONUCLEUS, Test System: CHL/IU CELLS, Metabolic Activation: NONE",inactive; negative
same,mutagenic call,[1],active; positive
same,mutagenic call,"Test System: AMES SALMONELLA TYPHIMURIUM, Strain/Indicator: TA98, Metabolic Activation: RAT, LIVER, S-9, KANECHLOR 500, Method: PREINCUBATION",active; positive
same,mutagenic call,[2],inactive; negative
same,mutagenic call,"Test System: AMES SALMONELLA TYPHIMURIUM, Strain/Indicator: TA100, Metabolic Activation: RAT, LIVER, S-9, KANECHLOR 500, Method: PREINCUBATION",inactive; negative
same,mutagenic call,"Test System: UDS RODENT HEPATOCYTES, Strain/Indicator: THY INCORP (NON-S-PHASE), Metabolic Activation: NONE, Method: AUTORADIOGRAPHY",inactive; negative
Oc1ccc(Cc2ccccc2O)cc1,mutagenic call,[1],inactive; negative
same,mutagenic call,"Test System: AMES SALMONELLA TYPHIMURIUM, Strain/Indicator: TA98, Metabolic Activation: RAT LIVER S-9, PHENOBARBITAL AND BETA-NAPHTHOFLAVONE, Method: PREINCUBATION",inactive; negative
same,mutagenic call,[2],inactive; negative
same,mutagenic call,"Test System: AMES SALMONELLA TYPHIMURIUM, Strain/Indicator: TA100, Metabolic Activation: RAT LIVER S-9, PHENOBARBITAL AND BETA-NAPHTHOFLAVONE, Method: PREINCUBATION",inactive; negative
same,mutagenic call,"Test System: AMES SALMONELLA TYPHIMURIUM, Strain/Indicator: TA1535, Metabolic Activation: NONE, Method: PREINCUBATION",inactive; negative
same,mutagenic call,"Test System: AMES SALMONELLA TYPHIMURIUM, Strain/Indicator: TA1535, Metabolic Activation: RAT LIVER S-9, PHENOBARBITAL AND BETA-NAPHTHOFLAVONE, Method: PREINCUBATION",inactive; negative
same,mutagenic call,"Test System: AMES SALMONELLA TYPHIMURIUM, Strain/Indicator: TA1537, Metabolic Activation: NONE, Method: PREINCUBATION",inactive; negative
same,mutagenic call,"Test System: AMES SALMONELLA TYPHIMURIUM, Strain/Indicator: TA1537, Metabolic Activation: RAT LIVER S-9, PHENOBARBITAL AND BETA-NAPHTHOFLAVONE, Method: PREINCUBATION",inactive; negative
same,mutagenic call,"Test System: E.COLI, Strain/Indicator: WP2UVRA/PKM101, Metabolic Activation: NONE, Method: PREINCUBATION",inactive; negative
same,mutagenic call,"Test System: E.COLI, Strain/Indicator: WP2UVRA/PKM101, Metabolic Activation: RAT LIVER S-9, PHENOBARBITAL AND BETA-NAPHTHOFLAVONE, Method: PREINCUBATION",inactive; negative
